Experimental data published in ChEMBL document CHEMBL5143749, “Discovery of Insulin/GLP-1/Glucagon Triagonists for the Treatment of Diabetes and Obesity” (ACS Med Chem Lett, 2022).

What was measured:
Homo sapiens = species on record: Homo sapiens; test: Selectivity ratio of EC50 for human […] expressed in frozen cells to EC50 for human GLP1R expressed in frozen cells; assay type: cell-based
[1] = target: Glucagon-like peptide 1 receptor (Homo sapiens, UniProt P43220); test: Agonist activity at human GLP1R expressed in frozen cells assessed as measuring the cAMP level incubated for 1 hr by HitHunter chemiluminescence based assay; assay type: functional, cell-based
Glucagon receptor = Glucagon receptor (Homo sapiens, UniProt P47871); test: Agonist activity at human GCGR expressed in frozen cells assessed as measuring the cAMP level incubated for 1 hr by HitHunter chemiluminescence based assay; assay type: functional, cell-based
Sequence of Glucagon receptor (P47871 whole entry): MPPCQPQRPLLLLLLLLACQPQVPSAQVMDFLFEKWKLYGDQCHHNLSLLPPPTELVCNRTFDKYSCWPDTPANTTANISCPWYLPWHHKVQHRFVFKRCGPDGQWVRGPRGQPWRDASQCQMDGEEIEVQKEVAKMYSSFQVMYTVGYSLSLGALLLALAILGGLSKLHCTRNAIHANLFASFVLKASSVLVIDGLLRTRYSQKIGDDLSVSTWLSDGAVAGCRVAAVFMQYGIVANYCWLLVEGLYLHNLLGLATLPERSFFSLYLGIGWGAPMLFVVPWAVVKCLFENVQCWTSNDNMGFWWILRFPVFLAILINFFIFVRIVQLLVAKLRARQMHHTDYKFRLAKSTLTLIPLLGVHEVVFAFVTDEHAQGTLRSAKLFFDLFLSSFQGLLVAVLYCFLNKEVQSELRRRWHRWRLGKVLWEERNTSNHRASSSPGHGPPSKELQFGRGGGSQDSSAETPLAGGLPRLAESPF

Sequence of Glucagon-like peptide 1 receptor (P43220 whole entry): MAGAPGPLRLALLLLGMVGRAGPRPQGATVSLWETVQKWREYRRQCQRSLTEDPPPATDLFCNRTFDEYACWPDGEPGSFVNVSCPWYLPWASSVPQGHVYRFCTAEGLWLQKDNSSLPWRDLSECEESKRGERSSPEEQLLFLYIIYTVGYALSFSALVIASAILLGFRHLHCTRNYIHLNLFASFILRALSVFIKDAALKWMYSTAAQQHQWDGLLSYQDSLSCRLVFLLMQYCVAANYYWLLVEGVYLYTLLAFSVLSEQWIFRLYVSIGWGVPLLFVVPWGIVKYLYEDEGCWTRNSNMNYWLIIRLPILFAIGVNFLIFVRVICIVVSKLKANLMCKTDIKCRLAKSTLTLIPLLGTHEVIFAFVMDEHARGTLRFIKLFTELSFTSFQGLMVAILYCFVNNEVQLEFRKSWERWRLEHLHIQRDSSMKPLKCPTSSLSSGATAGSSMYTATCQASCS

Row | SMILES | Ratio EC50 (Homo sapiens) | EC50 [1] | EC50 (Glucagon receptor)
1 | CCCCCCCCCCCCCCCC(=O)N[C@@H](CCC(=O)N[C@@H](CCC(=O)NCCCC[C@H](NC(=O)[C@H](CC(=O)O)NC(=O)[C@H](CO)NC(=O)[C@@H](NC(=O)[C@H](Cc1ccccc1)NC(=O)[C@@H](NC(=O)CNC(=O)[C@H](CCC(N)=O)NC(=O)[C@@H](CO)NC(=O)[C@@H](N)Cc1c[nH]cn1)[C@@H](C)O)[C@@H](C)O)C(=O)N[C@@H](CO)C(=O)N[C@@H](CCCCN)C(=O)N[C@@H](Cc1ccc(O)cc1)C(=O)N[C@@H](CC(C)C)C(=O)N[C@@H](CC(=O)O)C(=O)N[C@@H](CCC(=O)O)C(=O)N[C@@H](CCCNC(=N)N)C(=O)N[C@@H](C)C(=O)N[C@@H](C)C(=O)N[C@@H](CCCCNC(=O)COCCOCCNC(=O)CCCCN=[N+]=[N-])C(=O)N[C@@H](CC(=O)O)C(=O)N[C@@H](Cc1ccccc1)C(=O)N[C@H](C(=O)N[C@@H](CCC(N)=O)C(=O)N[C@@H](Cc1c[nH]c2ccccc12)C(=O)N[C@@H](CC(C)C)C(=O)N[C@@H](CC(C)C)C(=O)N[C@@H](CC(=O)O)C(=O)N[C@H](C(N)=O)[C@@H](C)O)C(C)C)C(=O)O)C(=O)O | 0.8 | – | –
2 | CCCCCCCCCCCCCCCC(=O)N[C@@H](CCC(=O)N[C@@H](CCC(=O)NCCCC[C@H](NC(=O)[C@H](CC(=O)O)NC(=O)[C@H](CO)NC(=O)[C@@H](NC(=O)[C@H](Cc1ccccc1)NC(=O)[C@@H](NC(=O)CNC(=O)[C@H](CCC(N)=O)NC(=O)C(C)(C)NC(=O)[C@@H](N)Cc1c[nH]cn1)[C@@H](C)O)[C@@H](C)O)C(=O)N[C@@H](CO)C(=O)N[C@@H](CCCCN)C(=O)N[C@@H](Cc1ccc(O)cc1)C(=O)N[C@@H](CC(C)C)C(=O)N[C@@H](CC(=O)O)C(=O)NC(C)(C)C(=O)N[C@@H](CCCNC(=N)N)C(=O)N[C@@H](C)C(=O)N[C@@H](C)C(=O)N[C@@H](CCC(N)=O)C(=O)N[C@@H](CC(=O)O)C(=O)N[C@@H](Cc1ccccc1)C(=O)N[C@H](C(=O)N[C@@H](CCC(N)=O)C(=O)N[C@@H](Cc1c[nH]c2ccccc12)C(=O)N[C@@H](CC(C)C)C(=O)N[C@@H](CC(C)C)C(=O)N[C@@H](CC(=O)O)C(=O)N[C@H](C(=O)N[C@@H](CCCCN)C(=O)N[C@@H](CCCCN=[N+]=[N-])C(N)=O)[C@@H](C)O)C(C)C)C(=O)O)C(=O)O | 1.4 | – | –
3 | CCCCCCCCCCCCCCCC(=O)N[C@@H](CCC(=O)N[C@@H](CCC(=O)NCCCC[C@H](NC(=O)[C@H](CC(=O)O)NC(=O)[C@H](CO)NC(=O)[C@@H](NC(=O)[C@H](Cc1ccccc1)NC(=O)[C@@H](NC(=O)CNC(=O)[C@H](CCC(N)=O)NC(=O)[C@@H](CO)NC(=O)[C@@H](N)Cc1c[nH]cn1)[C@@H](C)O)[C@@H](C)O)C(=O)N[C@@H](CO)C(=O)N[C@@H](CC(C)C)C(=O)N[C@@H](Cc1ccc(O)cc1)C(=O)N[C@@H](CC(C)C)C(=O)N[C@@H](CC(=O)O)C(=O)NC(C)(C)C(=O)N[C@@H](CCCNC(=N)N)C(=O)N[C@@H](C)C(=O)N[C@@H](C)C(=O)N[C@@H](CCC(N)=O)C(=O)N[C@@H](CC(=O)O)C(=O)N[C@@H](Cc1ccccc1)C(=O)N[C@H](C(=O)N[C@@H](CCC(N)=O)C(=O)N[C@@H](Cc1c[nH]c2ccccc12)C(=O)N[C@@H](CC(C)C)C(=O)N[C@@H](CC(C)C)C(=O)N[C@@H](CC(N)=O)C(=O)N[C@H](C(=O)N[C@@H](CCCCN=[N+]=[N-])C(=O)N[C@@H](CCC(N)=O)C(=O)O)[C@@H](C)O)C(C)C)C(=O)O)C(=O)O | – | 1.04 nM | –
4 | CCCCCCCCCCCCCCCC(=O)N[C@@H](CCC(=O)N[C@@H](CCC(=O)NCCCC[C@H](NC(=O)[C@H](CC(=O)O)NC(=O)[C@H](CO)NC(=O)[C@@H](NC(=O)[C@H](Cc1ccccc1)NC(=O)[C@@H](NC(=O)CNC(=O)[C@H](CCC(N)=O)NC(=O)[C@@H](CO)NC(=O)[C@@H](N)Cc1c[nH]cn1)[C@@H](C)O)[C@@H](C)O)C(=O)N[C@@H](CO)C(=O)N[C@@H](CCCCN)C(=O)N[C@@H](Cc1ccc(O)cc1)C(=O)N[C@@H](CC(C)C)C(=O)N[C@@H](CC(=O)O)C(=O)N[C@@H](CCC(=O)O)C(=O)N[C@@H](CCCNC(=N)N)C(=O)N[C@@H](C)C(=O)N[C@@H](C)C(=O)N[C@@H](CCC(N)=O)C(=O)N[C@@H](CCCCN=[N+]=[N-])C(=O)N[C@@H](Cc1ccccc1)C(=O)N[C@H](C(=O)N[C@@H](CCC(N)=O)C(=O)N[C@@H](Cc1c[nH]c2ccccc12)C(=O)N[C@@H](CC(C)C)C(=O)N[C@@H](CC(C)C)C(=O)N[C@@H](CC(=O)O)C(=O)N[C@H](C(N)=O)[C@@H](C)O)C(C)C)C(=O)O)C(=O)O | 0.5 | 0.028 nM | 0.013 nM
5 | CCCCCCCCCCCCCCCC(=O)N[C@@H](CCC(=O)N[C@@H](CCC(=O)NCCCC[C@H](NC(=O)[C@H](CC(=O)O)NC(=O)[C@H](CO)NC(=O)[C@@H](NC(=O)[C@H](Cc1ccccc1)NC(=O)[C@@H](NC(=O)CNC(=O)[C@H](CCC(N)=O)NC(=O)[C@@H](CO)NC(=O)[C@@H](N)Cc1cnc[nH]1)[C@@H](C)O)[C@@H](C)O)C(=O)N[C@@H](CO)C(=O)N[C@@H](CCCCN)C(=O)N[C@@H](Cc1ccc(O)cc1)C(=O)N[C@@H](CC(C)C)C(=O)N[C@@H](CC(=O)O)C(=O)N[C@@H](C)C(=O)N[C@@H](CCCNC(=N)N)C(=O)N[C@@H](C)C(=O)N[C@@H](C)C(=O)N[C@@H](CCC(N)=O)C(=O)N[C@@H](CC(=O)O)C(=O)N[C@@H](Cc1ccccc1)C(=O)N[C@H](C(=O)N[C@@H](CCC(N)=O)C(=O)N[C@@H](Cc1c[nH]c2ccccc12)C(=O)N[C@@H](CC(C)C)C(=O)N[C@@H](CC(C)C)C(=O)N[C@@H](CC(=O)O)C(=O)N[C@H](C(N)=O)[C@@H](C)O)C(C)C)C(=O)O)C(=O)O | 0.9 | – | –
